Assay: Human HepG2 cell viability assay in 384 well format
Format: toxicity, cell-based
Parameters: dose 125 nL, time 70.5 hour; concentration not given beside the values
Conditions: HepG2 cells, read-out: Inhibition

Point of comparison: `O=C(NCc1ccccn1)[C@]12COC[C@H]1CN(Cc1ccccc1F)C2`, cytotoxicity at 70.5 h -7.42%. Against it:
- CN(C)C(=O)c1ccc(-c2cccc3c2CCNC3)cc1 — lower, -18%
- c1cn(CC2CCOCC2)c(-c2cc(CN3CCCC3)cs2)n1 — higher, -3.55%
- CCc1nc2c(NCC3COc4c(cccc4OC)C3)ncnc2o1 (stereo unspecified) — higher, -4.9%
- CCC(CC)C(=O)NCC1(NC(C)c2ccccc2)CCOCC1 (stereo unspecified) — higher, 16.6%
- O=C(NCc1cc[nH]n1)NCC(O)c1ccc(F)cc1 (stereo unspecified) — higher, 6.85%
- CNC(=O)NC(=O)CN1CCC(c2c[nH]c3ccc(OC)cc23)CC1 — higher, -5.75%
- Cc1cc(C)n(CC2CCCCN2CCCS(N)(=O)=O)n1 (stereo unspecified) — higher, 14%
- Cc1nc(N(Cc2ccncc2)CC2CCCO2)c2ccsc2n1 (stereo unspecified) — higher, -5.47%
- CC(C)n1ncc2c1NC(=O)CC21C(=O)Nc2cc(Cl)cc(Cl)c21 (stereo unspecified) — lower, -17.8%
- COc1cc(F)cc(NC(=O)NCc2cccc(N(C)C)n2)c1 — higher, 16.5%
- Cc1ncccc1C(=O)Nc1cccc(Cn2ccccc2=O)c1 — lower, -7.74%
- COCC(=O)N1CC[C@@H]2O[C@@H](COCc3csc(C)n3)CC[C@@H]21 — higher, 4.53%
- Cc1ccc2c(c1)CCC2NCc1c(C)nn(CCO)c1C (stereo unspecified) — higher, -6.83%
- CS(=O)(=O)c1ccc(CNC(=O)Nc2cn[nH]c2)cc1 — lower, -12.4%
- Cn1cccc1-c1cc(C(=O)N2CCCC2c2nccs2)[nH]n1 (stereo unspecified) — higher, -0.138%
- CCOc1ccc(CC(=O)Nc2cnccc2SCCCO)cc1 — higher, -6.43%
- c1cc(-c2nnc([C@H]3CCN(C4CCCCC4)C3)o2)ccn1 — higher, -0.595%
- Cc1cnn(CCCNC(=O)NCCS(=O)(=O)Nc2ccccc2)c1 — lower, -25.5%
- CCC(CC)C(=O)N1CCN(Cc2cc(-c3ccncc3)nn2C)CC1 — higher, 1.08%
- c1cnn(Cc2ccc(CN3CCC4(CCNCC4)C3)cc2)c1 — higher, 2.52%
- CN(C)c1nc2c(c(=O)[nH]1)CCN(C(=O)c1ccc(=O)[nH]c1)C2 — higher, -3.2%
- COc1ccc(C(O)CNC(=O)NCc2c(C)cc(C)[nH]c2=O)cc1 (stereo unspecified) — higher, -5.03%
- COCc1cc(O)nc(C2CCCN(Cc3cccc(Cl)c3Cl)C2)n1 (stereo unspecified) — higher, -4.6%
- O=C(c1cccnc1)N1Cc2nccn2CC(COc2cccnc2)C1 (stereo unspecified) — lower, -15.2%
- Cc1ccc(CN2CC[C@H]3C[C@@H](c4nc(C5CC5)cs4)O[C@@H]3C2)o1 — lower, -7.46%
- CCN(CC1CCCO1)C(=O)Nc1ccc(OC)c(C)c1 (stereo unspecified) — lower, -8.02%
- Cc1nn(C)c(Cl)c1C1CCCN1CC(=O)NCc1ccco1 (stereo unspecified) — lower, -8.19%
- Cc1nc(C(=O)N2CCc3c(nc(-c4ccncc4)[nH]c3=O)C2)cs1 — lower, -8.1%
- COCCn1cc(C(=O)N2CCCC2c2cnn(C)c2)ccc1=O (stereo unspecified) — higher, -6.63%
- O=C(Nc1ccc(Cl)cc1C(=O)NCCN1CCOCC1)c1ccco1 — higher, -0.882%
- CC(=O)N(C)C1CCN(C(=O)c2cccc3c2ccn3C)CC1 — higher, 24.8%
- CCCn1ncc(C(=O)N(C)Cc2cc(C3CC3)[nH]n2)c1C — higher, 0.995%
- CCn1nc2c(cc1=O)CN(Cc1nc3ccccc3o1)CC2 — lower, -9.68%
- CCN(CC(=O)N(C)C)C(=O)C(C)(C)c1ccc2c(c1)OCCO2 — lower, -8.05%
- Cn1cc(C(O)CNC(=O)Nc2cc(F)ccc2-n2cccn2)cn1 (stereo unspecified) — higher, 5.74%
- CN(C)C(C(=O)N1CCN(C(=O)c2ccc[nH]2)CC1)c1ccc(F)cc1 (stereo unspecified) — higher, 9.68%
- CC(C)Oc1ccc(C(=O)Cn2cnnc2[S+](C)[O-])cc1 (stereo unspecified) — higher, -7.07%
- Cc1ccc(S(=O)(=O)Nc2ccc(=O)n(C)c2)cc1 — lower, -13.1%
- CC(C)N(C)Cc1cn2c(n1)CN(C(=O)c1ccc[nH]1)CC2 — higher, -5.19%
- COCCN(C)C[C@@H]1CCC[C@@H]2CN(c3cc(OC)ncn3)C[C@@H]21 — higher, -4.84%
- CCOC1CCCN(C(=O)c2ccccc2NCc2cccnc2)C1 (stereo unspecified) — higher, 15.9%
- O=C(CCS(=O)(=O)c1ccccc1)N1CCCC(n2cccn2)C1 (stereo unspecified) — higher, -2.57%
- CC(C)=CCN1C[C@H]2CC[C@@H]1CN(C(=O)c1c[nH]c(=O)c(Cl)c1)C2 — higher, -1.3%
- CN1C[C@H](c2ccccc2)[C@H]2CN(C(=O)Cc3ccc(O)cc3)CC[C@H]21 — higher, 22.7%
- CCCn1nc(C2CCNCC2)n(Cc2ccccc2)c1=O — higher, -7.28%
- CN1CCN(C(=O)c2cc3occc3n2Cc2ccccc2F)CC1 — lower, -10.6%
- O=C(NCc1ccccc1CN1CCC(O)CC1)Nc1ccncc1 — higher, 9.61%
- CC(C)c1ocnc1C(=O)N1CCC(=O)Nc2cccnc21 — lower, -13.9%
- O=C(O)C1CCCCN1C(=O)c1cccc(C(F)(F)F)c1 (stereo unspecified) — lower, -9.81%
- Cc1ccsc1C(=O)N1CC[C@H]2CO[C@H](CN(C)C)[C@H]2C1 — higher, -6.98%
- CCOCCn1nnc(C2(NC(=O)c3ccccc3)CCCC2)n1 — higher, 3.3%
- Cc1cc(NC(=O)CN2CCC(N(C)Cc3ncc(C)o3)C2)n(C)n1 (stereo unspecified) — higher, 16.2%
- COc1ccc(C(=O)N2CCC(Nc3ccc(C)nn3)CC2)c(F)c1 — higher, -6.97%
- c1ncn(Cc2cn3c(n2)CN(CC2CCCCC2)CC3)n1 — higher, -3.74%
- N#Cc1cccc(NS(=O)(=O)c2ccc(C(=O)O)cc2F)c1 — lower, -13.8%
- Cc1nc(C(=O)N2CCCCC2c2ccc(CN(C)C)cc2)c(C)o1 (stereo unspecified) — higher, -4.13%
- CCC(O)CN1CCN(C(=O)c2cccc3[nH]ncc23)CC1 (stereo unspecified) — lower, -10.6%
- Cn1cc(CN2CCc3onc(COc4cccnc4)c3C2)cn1 — higher, 14.8%
- O=C(NCc1ccccn1)c1nnn(-c2ccc(Br)cc2)n1 — higher, 10.5%
- CC(C)(C)OC(=O)NCCNC(=O)c1cnc(-c2ccccc2)nc1 — higher, -0.668%
- FC1(F)CCN(Cc2cccnc2)CC12CCN(c1cnccn1)C2 (stereo unspecified) — lower, -12.8%
- COc1ncccc1NC(=O)N1CCC(CN2CCOCC2)CC1 — higher, -6.27%
- CNC(=O)c1cccc(C2CNCCN2C(C)=O)c1 (stereo unspecified) — higher, 14.8%
- CC(C)Cc1nc(CN(C)CCOc2ccc(F)cc2)no1 — lower, -8.43%
- Cc1ccc(CN(C)C(=O)c2ccc(NC3CC3)nc2)o1 — lower, -13.2%
- Cc1ccc(-c2nc(CCNC(=O)NC3CCC(O)CC3)co2)cc1 (stereo unspecified) — higher, 0.284%
- Brc1ccc(C2(CNCc3cc[nH]c3)CCOCC2)cc1 — higher, -0.56%
- CC(C)CNC(=O)Cc1cnc(-n2cccc2)s1 — lower, -18.5%
- Cc1cc(C2CCCN2C(=O)c2cc3c(s2)CCC3)no1 (stereo unspecified) — higher, -0.925%
- c1ccc2c(c1)CC(N1CCCN(Cc3cccc4nonc34)CC1)C2 — higher, 21.6%
- CN(C)C(=O)N1Cc2nnn(C)c2C(COCc2cccnc2)C1 (stereo unspecified) — higher, -2.6%
- CN1CCN(C(=O)c2occc2CN2C(=O)Cc3ccccc32)CC1 — higher, 16%
- c1cncc(-c2cccc(-c3ccn(CCN4CCCCC4)n3)c2)c1 — higher, 13.9%
- O=C1CCC[C@]2(CN(S(=O)(=O)N3CCOCC3)C[C@H]2c2cccnc2)N1 — higher, -4.54%
- CCc1nnc(CN(CC)C(=O)C2CC(=O)N(C(C)(C)C)C2)o1 (stereo unspecified) — higher, -4.84%
- CCn1cc(NC(=O)NCC(O)CN2CCCCC2)cn1 (stereo unspecified) — lower, -14.9%
- CSc1ccc(OC(C)C(=O)Nc2cc[nH]n2)cc1 (stereo unspecified) — higher, -2.7%
- CCCN1CCC(Cc2nc(CN3CCN(C)CC3)no2)CC1 — higher, -5.37%
- CCn1cc(CN2CCC(NS(C)(=O)=O)CC2)cc1C#N — higher, -3.22%
- CN(C)CCN1CC(C(=O)NCc2ccc(C#N)cc2)CC1=O (stereo unspecified) — higher, -1.01%
- Cc1nn(-c2ccccc2)c2c1c(C(F)F)cc(=O)n2CC(=O)O — lower, -9.31%
- c1ccc(Cc2nnc(CN3CCOC(Cn4cccn4)C3)o2)cc1 (stereo unspecified) — higher, 0.701%
- Nc1ccc(-c2ccc(F)cc2Cl)cn1 — lower, -8.38%
- O=C(CN1CCCCCC1=O)NCC1CCN(c2ccccc2)C1 (stereo unspecified) — higher, -5.56%
- CO[C@H]1CCN(S(=O)(=O)c2cccs2)[C@H]1Cc1ccncc1 — higher, -6.14%
- O=C(NCCNc1cncc(Br)c1)c1ccc(O)cc1 — lower, -8.4%
- COc1ccccc1COCC(O)CN1CCC(c2ccn[nH]2)CC1 (stereo unspecified) — lower, -8.12%
- CC(C(=O)N(C)Cc1ccco1)n1cncn1 (stereo unspecified) — higher, 1.02%
- COc1ccc(OC)c(CN2CCC(c3cc(O)nc(C)n3)C2)c1 (stereo unspecified) — higher, 22.5%
- CCO[C@H]1CN(CC2CCOCC2)[C@@H]2CCCO[C@H]12 — higher, 9.78%
- O=C1CNc2ncnc(N3CCN(Cc4ccccc4)CC3)c2N1 — higher, 12.6%
- O=C1OC2(CCN(C(=O)C3NCCc4[nH]cnc43)CC2)c2ccccc21 (stereo unspecified) — lower, -9.73%
- Cc1nnsc1CN1CC[C@@](O)(C2CCC2)[C@H](C)C1 — higher, -7.08%
- O=C(NC1CC1)c1ccnc(-c2cc(NCCO)nc3[nH]ccc23)c1 — higher, 21.9%
- O=C(CCc1ccccc1)NCC(O)c1c(F)cccc1F (stereo unspecified) — higher, -3.12%
- CNC(=O)c1ccc2c(OC)n(C)nc2c1 — higher, -1.72%
- CC(C)(N)CNS(=O)(=O)Cc1cccc2cccnc12 — higher, 1.51%
- CCN1C[C@H]2CCN(C(=O)Cc3cccc(OC)c3)CC[C@H]2S1(=O)=O — lower, -8.13%
- Cc1ccc(-n2cnnn2)cc1NCC(=O)Nc1cc(F)ccc1F — lower, -66.2%
- O=S(=O)(NCc1cccnc1OC1CCCC1)N1CCCCC1 — higher, 0.259%
- CN(C)CCO[C@H]1CN(C(=O)c2ccc3c(c2)OCO3)[C@@H]2COC[C@H]12 — lower, -11.6%
- Cc1cc(C)n(CC2CN(Cc3nc(-c4ccco4)no3)CCO2)n1 (stereo unspecified) — higher, 2.57%
- CS(=O)(=O)N1C[C@H](C(=O)Nc2cnccn2)C[C@H]2OCC[C@H]21 — higher, 24.9%
- Cc1nccc(NCc2cncc3c2CCN(CCN(C)C)C3)n1 — higher, 3.96%
- CCn1cc(Cl)c(C(=O)NCCCN(C)C)n1 — lower, -7.78%
- c1ccc(-c2cnc(CNC3CCc4ncnn4C3)o2)cc1 (stereo unspecified) — higher, 0.0931%
- CC(c1ccccn1)N(C)C(=O)CN1CCN(c2ccccn2)CC1 (stereo unspecified) — lower, -11.5%
- O=C(NCCCN1CCC(OC2CCCCC2)CC1)C1CCCC1 — higher, -0.377%
- COc1ccccc1CNC(=O)CNCCn1cc(C)cn1 — lower, -13.5%
- Cc1nc(CN2CCO[C@H]3CN(C(=O)Cc4cccs4)C[C@H]32)cs1 — higher, -3.66%

From ChEMBL document CHEMBL3507680, “University of Dundee, Gates Library screen for HepG2 cell viability”
